# Where two headings read alike, the source gives them in different places. Non-standard residues stand in square brackets, D forms with d. Residues, ends and D or L forms follow the SMILES beside them. *: point of attachment. Dmt = Cc1cc(O)cc(C)c1C[C@H](N)C(=O)O; Pip = O=C(O)[C@@H]1CCCCN1; NHBn = c1ccc(CN*)cc1
# Tests used:
# [1] = test system: untransfected Chinese hamster ovary (CHO-WT) cells; assay: cAMP assay: inhibition of forskolin-stimulated cAMP in untransfected CHO cells; format: cell-based; settings: 100 µM ligand, 1 µM forskolin
# human MOP receptor = target: T1, human MOP receptor (Homo sapiens, UniProt P35372); assay: cAMP assay in CHO-MOP cells (agonism); format: cell-based
# T1 construct: expressed in transfected cells; host or cells: CHO (CHO-MOP, G418 selection)
# T1 sequence (P35372 whole entry): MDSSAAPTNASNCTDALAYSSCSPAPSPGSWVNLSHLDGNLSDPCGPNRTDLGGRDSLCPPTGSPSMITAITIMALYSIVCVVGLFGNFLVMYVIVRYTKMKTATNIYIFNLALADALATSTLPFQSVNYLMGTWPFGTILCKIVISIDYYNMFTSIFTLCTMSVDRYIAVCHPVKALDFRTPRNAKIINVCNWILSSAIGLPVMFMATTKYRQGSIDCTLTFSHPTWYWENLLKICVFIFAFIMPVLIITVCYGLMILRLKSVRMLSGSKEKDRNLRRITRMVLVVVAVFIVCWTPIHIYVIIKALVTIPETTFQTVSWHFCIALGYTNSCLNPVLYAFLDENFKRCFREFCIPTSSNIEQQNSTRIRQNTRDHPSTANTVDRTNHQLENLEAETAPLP
# human DOP receptor [2] = target: T2, human DOP receptor (Homo sapiens, UniProt P41143); assay: cAMP assay in CHO-DOP cells (agonism); format: cell-based; settings: for Inhibition of forskolin-stimulated cAMP production: 100 µM ligand, CHO-DOP cells, reference DPDPE
# T2 construct: expressed in transfected cells; host or cells: CHO (CHO-DOP, G418 selection)
# T2 sequence (P41143 whole entry): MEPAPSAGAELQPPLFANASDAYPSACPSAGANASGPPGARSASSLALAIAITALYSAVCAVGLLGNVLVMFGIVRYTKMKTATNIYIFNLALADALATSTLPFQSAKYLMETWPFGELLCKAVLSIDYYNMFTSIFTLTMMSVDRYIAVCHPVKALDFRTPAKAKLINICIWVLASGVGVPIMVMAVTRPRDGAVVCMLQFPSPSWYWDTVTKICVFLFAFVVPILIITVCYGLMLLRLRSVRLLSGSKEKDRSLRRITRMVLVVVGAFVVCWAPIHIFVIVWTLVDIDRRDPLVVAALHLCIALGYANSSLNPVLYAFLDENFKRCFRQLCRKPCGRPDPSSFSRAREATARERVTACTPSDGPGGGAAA
# human KOP receptor = target: T3, human KOP receptor (Homo sapiens, UniProt P41145); assay: cAMP assay in CHO-KOP cells (agonism); format: cell-based
# T3 construct: expressed in transfected cells; host or cells: CHO (CHO-KOP, G418 selection)
# T3 sequence (P41145 whole entry): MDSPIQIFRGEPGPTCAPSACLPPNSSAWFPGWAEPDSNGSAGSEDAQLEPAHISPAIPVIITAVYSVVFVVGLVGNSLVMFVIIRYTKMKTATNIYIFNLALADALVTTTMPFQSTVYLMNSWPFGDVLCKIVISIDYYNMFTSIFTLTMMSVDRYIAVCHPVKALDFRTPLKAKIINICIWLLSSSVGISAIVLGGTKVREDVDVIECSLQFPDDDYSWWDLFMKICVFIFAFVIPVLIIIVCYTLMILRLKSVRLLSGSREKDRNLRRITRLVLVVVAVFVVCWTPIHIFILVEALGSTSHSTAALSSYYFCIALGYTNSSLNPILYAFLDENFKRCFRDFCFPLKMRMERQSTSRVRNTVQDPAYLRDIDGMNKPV
# human NOP receptor = target: T4, human NOP receptor (Homo sapiens, UniProt P41146); assay: cAMP assay in CHO-NOP cells (agonism); format: cell-based
# T4 construct: expressed in transfected cells; host or cells: CHO (CHO-NOP, G418 and hygromycin B selection)
# T4 sequence (P41146 whole entry): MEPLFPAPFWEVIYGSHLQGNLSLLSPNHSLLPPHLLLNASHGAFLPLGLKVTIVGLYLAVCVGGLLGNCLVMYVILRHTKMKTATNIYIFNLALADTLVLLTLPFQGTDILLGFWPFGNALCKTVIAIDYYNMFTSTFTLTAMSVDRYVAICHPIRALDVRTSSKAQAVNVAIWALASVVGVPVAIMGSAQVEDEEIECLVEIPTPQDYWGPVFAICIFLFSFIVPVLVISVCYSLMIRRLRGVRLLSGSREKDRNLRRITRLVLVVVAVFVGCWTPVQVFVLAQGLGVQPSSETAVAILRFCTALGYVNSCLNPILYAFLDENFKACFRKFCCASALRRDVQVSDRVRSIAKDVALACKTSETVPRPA
# human DOP receptor [3] = target: T2, human DOP receptor; assay: Antagonism of DPDPE effect in cAMP assay, CHO-DOP cells; format: cell-based
# Experimental: The antagonist effect of UTA1003 was calculated as described in previous studies. […] (Figure 3E, Table 1).
# For a direct comparison between the UTA ligands, standard compounds, and for the concentration-response curves, the pharmacological effect was calculated as % of inhibition of forskolin-induced cAMP production, and the values were used for statistical analysis.
# Solubility (subjective) = format: physicochemical; settings: detailed solubility experiments not performed
# rat hippocampus = test system: rat hippocampus; set-up: method as in earlier work; settings: approximately five times lower dose; cited from earlier work
# Sprague Dawley rats [4] = assay: Open-field motor behaviour
# Sprague Dawley rats [5] = assay: Observation of physiological or behavioural toxicity after subcutaneous administration; settings: for Physiological or behavioural toxicity: subcutaneous administration
# Sprague Dawley rats [6] = assay: Hot plate antinociception assay; settings: repeated s.c. twice daily treatment; days 2, 5 and 8
# KOP receptor = target: KOP receptor; set-up: method as in PMID 22194444; settings: partial agonist; cited from earlier work
# NOP receptor = target: NOP receptor; set-up: method as in PMID 22194444; settings: partial agonist; cited from earlier work
# DOP receptor = settings: cited from earlier work
molecule,measurement,setting,value
Cc1cc(O)cc(C)c1C[C@H](N)C(=O)N1CCCC[C@H]1C(=O)NCC(=O)NCc1ccccc1 [UTA1003] (H-[Dmt]-[Pip]-Gly-NHBn),Inhibition of forskolin-stimulated cAMP production,[1],not observed
same,Emax,human MOP receptor,82.4%
same,EC50,"human MOP receptor; EC50, CHO-MOP, 1 µM forskolin",6.89 nM
same,EC50,"human MOP receptor; pEC50, CHO-MOP",6.92 nM
same,Emax,human DOP receptor [2],28.2%
same,Inhibition of forskolin-stimulated cAMP production,human DOP receptor [2],significantly lower specificity than DPDPE
same,EC50,"human DOP receptor [2]; EC50, CHO-DOP, 1 µM forskolin",26.6 nM
same,EC50,"human DOP receptor [2]; pEC50, CHO-DOP",26.3 nM
same,Emax,human KOP receptor,94.5%
same,EC50,human KOP receptor; EC50,30.9 nM
same,EC50,human KOP receptor; pEC50,30.9 nM
same,Emax,human NOP receptor,28.3%
same,EC50,"human NOP receptor; EC50, CHO-NOP, 5 µM forskolin",1790 nM
same,EC50,"human NOP receptor; pEC50, CHO-NOP",1780 nM
same,Kb,"human DOP receptor [3]; CHO-DOP, read-out: DOP receptor antagonism pKb (converted)",47.9 nM
same,Kd,human DOP receptor [3]; read-out: Antagonist Effect (Kd),47.8 nM
same,Solubility compared to UFP-505,Solubility (subjective),subjectively displayed better solubility
same,Oxidative damage in the rat hippocampus,rat hippocampus,reduced oxidative damage in the rat hippocampus
same,"Rearing time and rearing numbers, open field","Sprague Dawley rats [4]; acute s.c., 30 min post administration",slightly reduced rearing time and rearing numbers than vehicle
same,"Total rotational activities, open field","Sprague Dawley rats [4]; acute s.c., 120 min observation",remained unaffected
same,"Moving distance, open field","Sprague Dawley rats [4]; acute s.c., UTA1003 24.6 mg/kg",unaffected
same,"Moving time, open field","Sprague Dawley rats [4]; acute s.c., UTA1003 24.6 mg/kg, 30 min post administration",significantly reduced moving time compared to the vehicle group
same,"Motor behaviour after repeated treatment, open field","Sprague Dawley rats [4]; s.c. twice daily over 8 days, 30 min post administration",only a mild but significant suppression of motor activity on the first day
same,Itching,Sprague Dawley rats [5]; repeated dosing,absent
same,Physiological or behavioural toxicity,Sprague Dawley rats [5],did not observe any physiological or behavioural toxicity
"C[C@@H](NC(=O)[C@@H](N)Cc1ccc(O)cc1)C(=O)NCC(=O)N(C)[C@@H](Cc1ccccc1)C(=O)NCCO [DAMGO, reference compound]",Emax,"human MOP receptor; CHO-MOP, inhibition of forskolin-stimulated cAMP, read-out: Emax (%)",88.8%
CN1CC[C@]23c4c5ccc(O)c4O[C@H]2[C@@H](O)C=C[C@H]3[C@H]1C5 [morphine],"Antinociception, morphine versus UTA1003/morphine at same day, hot plate",Sprague Dawley rats [6],significantly lower than those of the UTA1003/morphine co-treatment on day 2
H-Dmt-Tic-Gly-NH-Bzl [UFP-505],Inhibition of forskolin-stimulated cAMP production,[1],not observed
same,Inhibition of forskolin-stimulated cAMP production,human DOP receptor [2],significantly lower specificity than DPDPE
same,pKi,KOP receptor,6.29
same,pKi,NOP receptor,5.86
same,DOP receptor antagonism pKb,DOP receptor; ref 37,9.81
same,DOP receptor antagonism pKb,DOP receptor; ref 60,10.50
same,Physiological or behavioural toxicity,Sprague Dawley rats [5],did not observe any physiological or behavioural toxicity
